Measured values published in patent publication US20040258620A1, “(Ethylene)-( propylene)-triaminepentaacetic acid derivatives, process for their production, and their use for the production of pharmaceutical agents” (priority 2001, published 2004).
Each block holds one compound with its values, some of them ahead of it.

Test: 17O NMR on Gd(TRITA-bz-NO2)
Format: physicochemical
Conditions: for A/ħ / ER / ΔH^x / ΔS* / τR^298: from ^17O NMR data; for kex^298: water exchange rate from ^17O NMR data; for In(1/T1r), reduced longitudinal ^17O relaxation rate / In(1/T2r), reduced transverse ^17O relaxation rate / Δwr, reduced ^17O chemical shift: B = 9.4 Tesla
Description: The rate of water exchange, Kes, has been measured on Gd(TRITA-bz-NO2) by ^17O NMR. The numerical experimental data (reduced transverse and longitudinal ^17O relaxation rates, reduced chemical shifts) measured on a Gd(TRITA-bz-NO2) solution are shown in Table 6.

A/ħ: −3.7 10^6 rad s^−1 | ER: 3.85 kcal/mol | τR^298: 77 ps
SMILES: O=C([O-])CN1CCN(CC(=O)[O-])CCN(CC(=O)[O-])CCN(CC(=O)[O-])CC1.[Gd+3] [Gd(DOTA)(H2O)^−, reference compound]
ΔH^x: 11.9 kcal/mol | ΔS*: +10.5 Jmol^−1K^−1 | kex^298: 4.1 10^6 s^−1

In(1/T1r), reduced longitudinal ^17O relaxation rate (T 273.05 K): 11.42 | In(1/T2r), reduced transverse ^17O relaxation rate (T 273.05 K): 13.55 | Δwr, reduced ^17O chemical shift (T 273.05 K): −9.34E+05 Hz | In(1/T1r), reduced longitudinal ^17O relaxation rate (T 281.75 K): 11.08 | In(1/T2r), reduced transverse ^17O relaxation rate (T 281.75 K): 13.31 | Δwr, reduced ^17O chemical shift (T 281.75 K): −9.23E+05 Hz | In(1/T1r), reduced longitudinal ^17O relaxation rate (T 292.45 K): 10.60 | In(1/T2r), reduced transverse ^17O relaxation rate (T 292.45 K): 12.96 | Δwr, reduced ^17O chemical shift (T 292.45 K): −9.15E+05 Hz | In(1/T1r), reduced longitudinal ^17O relaxation rate (T 302.25 K): 10.44 | In(1/T2r), reduced transverse ^17O relaxation rate (T 302.25 K): 12.54 | Δwr, reduced ^17O chemical shift (T 302.25 K): −8.72E+05 Hz | In(1/T1r), reduced longitudinal ^17O relaxation rate (T 317.25 K): 9.97 | In(1/T2r), reduced transverse ^17O relaxation rate (T 317.25 K): 12.03 | Δwr, reduced ^17O chemical shift (T 317.25 K): −8.28E+05 Hz | In(1/T1r), reduced longitudinal ^17O relaxation rate (T 330.25 K): 9.58 | In(1/T2r), reduced transverse ^17O relaxation rate (T 330.25 K): 11.56 | Δwr, reduced ^17O chemical shift (T 330.25 K): −7.07E+05 Hz | In(1/T1r), reduced longitudinal ^17O relaxation rate (T 349.45 K): 9.14 | In(1/T2r), reduced transverse ^17O relaxation rate (T 349.45 K): 11.06 | Δwr, reduced ^17O chemical shift (T 349.45 K): −6.13E+05 Hz | inner sphere water molecules of the complex (according to the ^17O chemical shifts): 1 | A/ħ: −3.5 ± 0.2 10^6 rad s^−1 | ER: 5.57 ± 0.406 kcal/mol | τR^298: 223 ± 20 ps
SMILES: O=C([O-])CN1CCN(CC(=O)[O-])CCN(CC(=O)[O-])CC(Cc2ccc([N+](=O)[O-])cc2)CN(CC(=O)[O-])CC1.[Gd+3] [Gd(TRITA-bz-NO2)]
water exchange rate Kex^298: 1.8e+08 s⁻¹ | ΔH^x: 6.41 ± 0.19 kcal/mol | ΔS*: +3.0 ± 1.0 Jmol^−1K^−1 | water exchange rate, times higher than that measured on Gd(DOTA) (relative to Gd(DOTA)): over 40 times | kex^298: 180 ± 10 10^6 s^−1
